{"source": "patent US10500248B2", "about": "“Method for treating cancer” (SUNNYBROOK RESEARCH INSTITUTE, priority 2015, dated 2019)", "key": {"DU145 cells [1]": {"test_system": "DU145 cells", "assay": "Wound healing assay, DU145", "assay_type": "cell-based", "details": "for effect on migration (wound closure) compared to control: 10 nM DTX alone, Desmopressin alone", "description": "The motility inhibitory potential of desmopressin alone and/or in combination with docetaxel was accessed by wound healing assay according to previously described protocol^49, 50. DU145 cell were plated on 24-well plates at a concentration of 50,000 cells per well and were allowed to grow until they reached 90-100% confluence. After incubating the cells with 1 mg/L Mitomycin C (Sigma©) for 1 hour, a vertical scratch across each well was created; floating cells removed and cell media or media with treatment solutions were added. Images were obtained at zero-time point and after 24 hours of treatment. A computer-based microscopy imaging system with X200 magnification (Axiovision©) was used to measure wound healing of each well. Each experiment was carried out in duplicates and repeated three times"}, "PC3 cells [2]": {"test_system": "PC3 cells", "assay": "Transwell cell migration assay, PC3", "assay_type": "cell-based, human", "details": "PC3, 24 h; desmopressin 1 nM and 1 μM; 5 nM docetaxel in combination", "description": "(§1) The migration of cells was measured using transwell insert plates (BD Biosciences, Bedford Mass.) according to the manufacture's protocol. Cells were subjected to 24 h of serum deprivation in DMEM/F12 supplemented with FBS. PC3 (5×10^4) cells were plated onto filters in 8.0-μm transwell insert plates and treated with these compounds, desmopressin (1 nM, 1 μM) and 5 nM docetaxel, in serum-free medium. The lower chamber also contained 10% FBS. Cells were allowed to migrate for 24 h. After the treatment, cells remaining on the top surfaces of the filter were removed using cotton swabs. The migrated cells that are attached to the lower surface of the filter were fixed in 4% formaldehyde at room temperature for 30 min, and then stained with crystal violet for 20 min. The migrated cells from random fields were chosen and counted using the computer-based microscopy imaging system. For the invasion assay, the same procedures were performed as described in the migration assay, except that the cells were plated onto 24-well matrigel-coated transwell plates (BD Biosciences, Bedford Mass.). The experiments were repeated 2 times in duplicates and statistical analysis performed."}, "PC3 cells [3]": {"test_system": "PC3 cells", "assay": "Matrigel invasion assay, PC3", "assay_type": "cell-based, human", "details": "5 nM docetaxel, desmopressin 1 nM and 1 uM", "description": "as §1"}, "[4]": {"test_system": "cyclin A, cyclin B, CDK2, CDK4, p21(waf1/cip1), p27(kip1), Bax, Bcl-2, PARP, Caspase 3 in PC3 cells", "assay": "Western blot of cell cycle and apoptosis proteins, PC3", "assay_type": "cell-based, human", "description": "(§2) Protein lysates from the desmopressin monotherapy dose response study (100 pM-1 uM), desmopressin monotherapy time point study (1 uM, 0-48 h) and combination study and concentrated media employed for Western blot analysis, were prepared as previously described.^14 The proteins were subjected to 10-12% SDS-PAGE and electrophoretically transferred onto a PVDF membrane at 100V/300 mA overnight using a semidry transfer apparatus (Bio-Rad Laboratories, Hercules, Calif.). After activation in methanol (100%), blots were incubated for 60 mins at room temperature in TBST containing 5% skimmed milk. After washing, the membranes were incubated with primary antibodies against Bax, bcl-2, p21 (waf1/cip1), p27 (kip1), cdk2, cdk4, uPA, uPAR, MMP-2 and MMP-9 (1:100-200, Santacruz Biotechnology, Santacruz, Calif., USA). After incubation with respective primary antibody, the membrane was washed with TBST 3 times for 5 min, then incubated with appropriate secondary antibody for 1 h at room temperature and washed with TBST 3 times for 5 min. Protein detection was performed with enhanced chemiluminescence Western blotting regents (Amersham Pharmacia Biotech, Buckinghamshire, UK)."}, "[5]": {"test_system": "pro-uPA, active uPA, uPAR, MMP-2 and MMP-9 in PC3 cells", "assay": "Western blot of uPA-MMP pathway, PC3", "assay_type": "cell-based, human", "description": "as §2"}, "PC3 cells [6]": {"test_system": "PC3 cells", "assay": "Flow cytometry cell cycle analysis (BrdU labeling), PC3", "assay_type": "cell-based, human", "description": "To analyze cell cycle profiles, cells were plated at a density of 1×10^6 per 10 cm dish. Asynchronously growing cells were pulse labeled with […] bromodeoxyuridine (BrdU) for 2 h with or without prior treatment of the antioxidants at the end of 24 h. Cells were then harvested, fixed with 70% ethanol, treated with 0.1% HCl and heated for 10 min at 90° C. to expose the labeled DNA. Cells were stained with anti-BrdU-conjugated FITC (Becton-Dickinson) and counterstained with propidium iodide, and then allowed to incubate for 30 mins on ice. Samples were filtered through a nylon mesh. Cell cycle analysis was carried out on the FACS Calibur flow cytometer using the Cell Quest Pro software package (Becton-Dickinson, CA, USA). The experiments were repeated 3 times in triplicates and statistical analysis performed as mentioned below."}, "PC3 cells [7]": {"test_system": "PC3 cells", "details": "for body weight: during each study", "description": "The mice were housed and maintained in laminar flow cabinets under specific pathogen-free conditions in facilities approved by the University of Toronto Animal Research Ethics Board and in accordance with their regulations and standards by the Canadian Council on Animal Care (CCAC). Cells (1×10^6 PC3 cells with 100 μl martrigel solution (BD Biosciences, CA, USA)) were inoculated subcutaneously (sc) into 6-8 week-old male nude mice (Harlan Sprague Dawley, Inc.). After 14 days, the developing tumors were measured and mice randomly assigned to different treatment groups. Tumor volumes were determined by measurement of tumor length (L) and width (W) with a caliper and calculated according to the formula: V=(L×W^2)(π/6) twice a week. A tumor volume in the range of 100 mm^3 was required for a given mouse to be included. Using the xenograft model, tumor growth was determined for the control and each treatment mice. Mice were randomized into four groups; control (n=15), desmopressin alone (n=15), docetaxel alone (n=10) and desmopressin in combination with docetaxel (n=10). Control animals received only the saline vehicle. Desmopressin from Ferring Pharmaceuticals (Ferring Inc, CA, USA) was administrated in 2 doses, 0 h and 24 h. Mice received desmopressin intravenously in the saline at a final dose of 2 μg/ml/body weight (50 ng/0.3 ml saline dose). Mice were administrated docetaxel at a dose of 5 mg/kg intravenously as 3 weekly cycles. Desmopressin was administrated in 2 doses, 30 min prior to and 24 h after the administration of docetaxel. The animals that were administrated docetaxel or desmopressin in combination with docetaxel were sacrificed 35 days after cell inoculation. Control and desmopressin mice were monitored until tumor volume was approximately 1500 mm3 or day 49, whichever earlier, in order to evaluate antitumor effect of desmopressin in vivo study.\nAll experiments were performed in triplicates. The date represented mean±the standard error of the mean. Statistical analysis was done by Student's t test at a significance level of P<0.05. Analyses of the in vivo results were performed using either Student's t-testing or repeated measures one-way ANOVA techniques."}, "DU145 cells [8]": {"test_system": "DU145 cells", "assay": "DU145 xenograft model in athymic nude mice", "assay_type": "in vivo", "details": "day 55 post inoculation", "description": "6-week old male athymic nude mice (Charles river, QC, Canada) were used to evaluate the effect of combination therapy on DU145 tumor growth in vivo. […] Following 2 weeks of housing, 1×10^6 DU145 cells per animal in 100 μL matrigel solution (BD Bioscience, CA, USA) were inoculated subcutaneously, according to procedure described by Fridman et al (51). After 14 days following inoculation, body weight and tumor size were measured, and mice were randomly assigned to different treatment groups. Groups included control (sham treatments), DTX (5 mg/kg body weight) intraperitoneally, Desmopressin (2 μg/ml/body weight) intravenously 30 minutes prior to IP injection and 24 hours later or combination therapy (n=4 per group). Each group received treatment once every other week for a total of 3 treatments. Animal weight and tumor measurements were assessed regularly. Tumor size was calculated by length (L) and width (W) measured with caliper according to the following formula: V=(L×W2) ( […] /6).\nTwo weeks following the last treatment, mice were euthanized; tumors were excised, measured directly with caliper and sent for histological analysis.\nStatistics: Tumor volume calculated during the treatment period were compared using repeated measures one-way ANOVA test (SPSS©). Final tumor volume and body weight measurements were compared separately using one-way ANOVA test."}, "PC3 cells [9]": {"test_system": "PC3 cells", "assay": "MTS cell proliferation assay, PC3", "assay_type": "cell-based, human", "details": "PC3, 72 h; docetaxel 0-100 nM; desmopressin 1 nM-1 μM; combination desmopressin (1 nM, 1 μM) and 5 nM docetaxel", "description": "PC3 human prostate carcinoma cells were obtained from the American Type Culture Collection (Rockville, Md., USA). Cells were cultured in DMEM/F12 medium (Invitrogen, ON, Canada) with 10% fetal bovine serum (FBS; Gibco, NY, USA), 100 IU/ml penicillin, 100 μg/ml streptomycin and 0.3 mg/ml 1-glutamine, and maintained at 37° C. in a humidified atmosphere of 5% CO2 in air. Cells were grown to 80% confluence in 10-cm tissue culture plates.\nCell proliferation was determined by MTS assay as previously described.^14 Cells (5×10^3/well) were plated using 96 well plates. After cultivation for 24 h, a range of concentration of desmopressin (100 pM-1 μM) and/or Docetaxel (1 nM-100 nM) were added and culture continued for up to 72 h. Cell viability was assessed by incubation with MTS for 2 hours and resulting absorbance measured at 595 nm using an ELISA plate reader. In the combination studies, varying dose of each agents were tested. The experiments were repeated 3 times in triplicates and statistical analysis performed."}, "[10]": {"details": "dose response study 100 pM-1 uM"}}, "note": "Read-outs that look alike come from different tables or passages of the source."}
{"smiles": "NC(=O)CC[C@@H]1NC(=O)[C@H](Cc2ccccc2)NC(=O)[C@H](Cc2ccc(O)cc2)NC(=O)CCSSC[C@@H](C(=O)N2CCC[C@H]2C(=O)N[C@H](CCCN=C(N)N)C(=O)NCC(N)=O)NC(=O)[C@H](CC(N)=O)NC1=O", "note": "[desmopressin, 1-desamino-8-D-arginine vasopressin]", "values": [{"measurement": "effect on migration (wound closure) compared to control", "setting": "DU145 cells [1]; DU145, 24 hours", "result": "no statistical significant effect"}, {"measurement": "cell migration, transwell plates", "setting": "PC3 cells [2]", "result": "significantly inhibited cell migration"}, {"measurement": "cell invasion, matrigel invasion assay", "setting": "PC3 cells [3]", "result": "significantly inhibition of cell invasion"}, {"measurement": "expression of (total) Caspase 3", "setting": "[4]", "result": "did not reduce the expression"}, {"measurement": "expression of PARP", "setting": "[4]", "result": "did not reduce the expression"}, {"measurement": "expression of bcl-2", "setting": "[4]", "result": "did not reduce the expression"}, {"measurement": "expression of MMP-2", "setting": "[5]; [10]", "result": "reduced in a dose dependent manner"}, {"measurement": "expression of MMP-9", "setting": "[5]; [10]", "result": "reduced in a dose dependent manner"}, {"measurement": "expression of active uPA", "setting": "[5]; [10]", "result": "reduced in a dose dependent manner"}, {"measurement": "expression of precursor pro-uPA", "setting": "[5]; [10]", "result": "reduced in a dose dependent manner"}, {"measurement": "expression of uPAR", "setting": "[5]; [10]", "result": "unaltered"}, {"measurement": "expression of MMP-2", "setting": "[5]; time point study, 1 μM, 0-48 h", "result": "reduced in a time dependent manner"}, {"measurement": "expression of MMP-9", "setting": "[5]; time point study, 1 μM, 0-48 h", "result": "reduced in a time dependent manner"}, {"measurement": "expression of uPA", "setting": "[5]; time point study, 1 μM, 0-48 h", "result": "reduced in a time dependent manner"}, {"measurement": "expression of uPAR", "setting": "[5]; time point study, 1 μM, 0-48 h", "result": "not altered"}, {"measurement": "cell cycle distribution", "setting": "PC3 cells [6]; monotherapy", "result": "did not alter cell cycle distribution"}, {"measurement": "mean tumor volume", "setting": "PC3 cells [7]; PC3 xenograft, nude mice, day 35 post tumor inoculation, desmopressin 2 μg/ml/body weight i.v.", "result": 642, "unit": "mm3"}, {"measurement": "body weight", "setting": "PC3 cells [7]; PC3 xenograft, nude mice", "result": "consistently maintained their body weight"}, {"measurement": "tolerability of treatment", "setting": "PC3 cells [7]; PC3 xenograft, nude mice, intravenous injection", "result": "well tolerated"}, {"measurement": "tumor growth / tumor size versus control (and docetaxel alone)", "setting": "PC3 cells [7]; PC3 xenograft, nude mice, docetaxel 5 mg/kg i.v., desmopressin 2 μg/ml/body weight i.v.", "result": "significantly slower rate of tumor development"}, {"measurement": "average tumor size, final direct measurement of excised tumors", "setting": "DU145 cells [8]", "result": "1597±681", "unit": "mm3"}, {"measurement": "cell proliferation / cell viability (MTS), relative to untreated control cells", "setting": "PC3 cells [9]", "result": "significantly reduced cell proliferation"}]}
{"smiles": "CC(=O)O[C@@]12CO[C@@H]1C[C@H](O)[C@@]1(C)C(=O)[C@H](O)C3=C(C)[C@@H](OC(=O)[C@H](O)[C@@H](NC(=O)OC(C)(C)C)c4ccccc4)C[C@@](O)([C@@H](OC(=O)c4ccccc4)[C@H]21)C3(C)C", "note": "[docetaxel]", "values": [{"measurement": "effect on migration (wound closure) compared to control", "setting": "DU145 cells [1]; DU145, 24 hours", "result": "migration inhibitory effect"}, {"measurement": "in vitro wound closure", "setting": "DU145 cells [1]; DU145, 24 hours, DTX 10 nM, alone or combined with 1 μm Desmopressin", "result": 48.9, "unit": "%"}, {"measurement": "cell kill in wound healing assay", "setting": "DU145 cells [1]; DU145, DTX concentration of 100 μM", "result": "significant cell kill"}, {"measurement": "cell invasion, matrigel invasion assay", "setting": "PC3 cells [3]", "result": "significantly inhibition of cell invasion"}, {"measurement": "proportion of cells in G2 phase", "setting": "PC3 cells [6]; 5 nM docetaxel, alone or with 1 nM/1 μM desmopressin", "result": "significant increase in the proportion of cells in G2 phase"}, {"measurement": "body weight", "setting": "PC3 cells [7]; PC3 xenograft, nude mice", "result": "consistently maintained their body weight"}, {"measurement": "tolerability of treatment", "setting": "PC3 cells [7]; mouse, in vivo, iv", "result": "well tolerated"}, {"measurement": "average tumor size, final direct measurement of excised tumors", "setting": "DU145 cells [8]", "result": "1330±550", "unit": "mm3"}, {"measurement": "cell proliferation / cell viability (MTS), relative to untreated control cells", "setting": "PC3 cells [9]", "result": "decreased cell viability in a dose dependent manner"}]}
